Earlier results on one compound are cited in patent US11504333B2, “Pharmaceutical composition” (NOVARTIS AG, priority 2017, dated 2022).

Entries after “also recorded” stand apart in the source; their conditions may differ. Read-outs that look alike come from different tables or passages of the source.

Experiment in series [1]: not given
This is another data set of the same source.

Consider `CC(C)(C)c1nc(-c2cccc(NS(=O)(=O)c3c(F)cccc3F)c2F)c(-c2ccnc(N)n2)s1.CS(=O)(=O)O` [Compound A, N-{3-[5-(2-Amino-4-pyrimidinyl)-2-(1,1-dimethylethyl)-1,3-thiazol-4-yl]-2-fluorophenyl}-2,6-difluorobenzenesulfonamide, methanesulfonate salt], for which, under “aqueous, methanesulfonate salt”, the “Solubility (general)” value is on record as “low solubility; also recorded: poor aqueous solubility”. Further, the Solubility result is “practically insoluble” (slightly acidic, neutral pH, and basic media); “very slightly soluble” (strongly acidic aqueous media). The Permeability result in series [1] is “high permeability”.
